These results are taken from ChEMBL document CHEMBL4602652, “Development of cyclic peptide derivatives from the N-terminal region of LANA for targeting the nucleosome acidic patch” (Bioorg Med Chem Lett, 2020).

Activity calls are given as the source filed them. The rule behind the calls is not given here. Peptide text beside a SMILES is read from it.

The species entered for experiment [1] is Homo sapiens. Description: Inhibition of FITC-labelled LANA (1 to 23 residues) binding to recombinant human H2A/H2B harboring acidic patch at by fluorescence polarization assay. For orientation: In fluorescence polarisation assays a small probe gives low polarisation when free and higher when bound to something large.
Experiment [2] can be described thus: (§1) Inhibition of FITC-labelled LANA peptide (1 to 23 residues) binding to human HeLa mononucleosomes by fluorescence polarization assay.
The next experiment concerns HeLa. The experiment is described as §1.
For experiment [3], the species on record is Homo sapiens. Description: Inhibition of FITC-labelled LANA (1 to 23 residues) binding to recombinant human H2A/H2B harboring acidic patch at 100 uM by fluorescence polarization assay relative to control.

In general, inhibition refers to the change of the read-out against control, counted positive when it falls. Consider `CSCC[C@@H]1NC(=O)CNC(=O)[C@@H]2CCCN2C(=O)[C@H](C)NC(=O)CNC(=O)[C@H]([C@@H](C)O)NC(=O)[C@H](CO)NC(=O)[C@H](CCCNC(=N)N)NC(=O)CNC(=O)[C@H](CO)NC(=O)[C@H](CCCNC(=N)N)NC(=O)[C@H](CC(C)C)NC(=O)[C@H](CCCNC(=N)N)NC1=O` (cyclo(APGMRLRSGRSTG)), for which, in the experiment listed under Homo sapiens [1], the inhibition result was “Active”.

By IC50 is commonly meant the concentration at which inhibition is half-maximal. Lower therefore signals greater potency. The term Ki denotes a dissociation constant, usually derived from enzyme kinetics or from competition with a known ligand. Higher therefore signals a looser hold on the target. In the case of `CSCC[C@@H]1NC(=O)CNC(=O)CNC(=O)[C@H]([C@@H](C)O)NC(=O)[C@H](CO)NC(=O)[C@H](CCCNC(=N)N)NC(=O)CNC(=O)[C@H](CO)NC(=O)[C@H](CCCNC(=N)N)NC(=O)[C@H](CC(C)C)NC(=O)[C@H](CCCNC(=N)N)NC1=O` (cyclo(GGMRLRSGRST)), in experiment [2], the IC50 was determined as 204 nM and the Ki came out at 61 nM. The inhibition entry with HeLa was “Dose-dependent effect”. For the same molecule, the inhibition in the experiment filed under Homo sapiens [3] amounted to 100%.

For `CSCC[C@@H]1NC(=O)[C@H]([C@@H](C)O)NC(=O)[C@H](CO)NC(=O)[C@H](CCCNC(=N)N)NC(=O)CNC(=O)[C@H](CO)NC(=O)[C@H](CCCNC(=N)N)NC(=O)[C@H](CC(C)C)NC(=O)[C@H](CCCNC(=N)N)NC1=O` (cyclo(GRSTMRLRS)), in the experiment filed under Homo sapiens [1], the inhibition result was “Active”.

With Ac-GMRLRSGRSTG-NH2, the inhibition result in the experiment filed under Homo sapiens [1] was “Active”. Besides, the IC50 in experiment [2] was found to be 614 nM. In the experiment on HeLa, the inhibition entry was “Dose-dependent effect”.

As for Ac-MRLRSGRST-NH2, in the experiment filed under Homo sapiens [1], the inhibition entry is “Active”.

With Ac-PGFRLRSGRSTGA-NH2, the inhibition entry in the experiment listed under Homo sapiens [1] was “Active”.

As to Ac-PGIRLRSGRSTGA-NH2, the inhibition entry in the experiment listed under Homo sapiens [1] is “Active”.

Regarding Ac-PGLRLRSGRSTGA-NH2, the inhibition entry in the experiment filed under Homo sapiens [1] is “Active”.

On to Ac-PGMRLRSGRSHGA-NH2, for which, in the experiment listed under Homo sapiens [1], the inhibition entry was “Active”.

With Ac-PGMRLRSGRSKGA-NH2, in the experiment filed under Homo sapiens [1], the inhibition entry is “Active”.

For the molecule Ac-PGMRLRSGRSRGA-NH2, the inhibition result in the experiment listed under Homo sapiens [1] is “Active”.

As to Ac-PGMRLRSGRSTGA-NH2, the inhibition in the experiment listed under Homo sapiens [3] was found to be 40%.

For the molecule Ac-PGVRLRSGRSTGA-NH2, the inhibition result in the experiment listed under Homo sapiens [1] was “Active”.
